The results in this text go back to PubChem BioAssay AID602273 (Broad Institute, 2012).

The source made the active and inactive calls. The rule behind the calls is not given here.

This experiment can be described thus: rescue of alpha-synuclein yeast toxicity, dose response, S. cerevisiae, plate reader, cherry-pick (AID 602273). The note with it: S. cerevisiae alpha-synuclein toxicity rescue, OD600 growth, 24 h; at 26 µM (top of the series).
Regarding `O=c1[nH]c2c(s1)C=Nc1ccccc1N2`, the growth rescue activity is 4.6% (inactive). Under `c1ccc(N2CC3CCc4ccccc4C3=N2)cc1` (stereo unspecified) stands 11.6% (inactive); under `Cc1ccc(CNC(=O)CSc2ccsc2[N+](=O)[O-])cc1`, 2.48% (inactive); under `Cc1ccc(/C=C2\Oc3cc(OC(=O)N4CCOCC4)ccc3C2=O)cc1`, -7.43% (inactive).

With `c1ccc2c(Nc3nnc(-c4ccncc4)s3)cccc2c1`, the growth rescue activity is -9.03% (inactive). For `Cc1c(/C=N/NC(=O)c2ccc(Br)o2)cnn1C`, the growth rescue activity is -2.43% (inactive). In the case of `O=C(CSc1ccc(Cl)cc1)N1CCN(c2c(Cl)cccc2[N+](=O)[O-])CC1`, the growth rescue activity is -19.7% (inactive). On to `Oc1[nH]c(N=C2N=c3ccccc3=N2)c2ccccc12`, for which the growth rescue activity is -26.4% (inactive). On to `CC1(C)CC(=O)C(=Cc2cn(-c3ccccc3)nc2-c2ccccc2)C(=O)C1`, for which the growth rescue activity was 1.64% (inactive). `CCN(CC)CCn1c2ccccc2c2nc3ccc([N+](=O)[O-])cc3cc21`: the growth rescue activity was 0.822% (inactive). Under `CC1CC(C)(C)N(C(=O)NC2CCCCC2)c2ccccc21` (stereo unspecified) stands 12.6% (inactive); under `CN(Cc1nnc(-c2ccc(F)cc2)o1)c1ccccc1`, 8.17% (inactive); under `O=C(CSc1nnc(-c2c[nH]c3ccccc23)n1-c1ccc(F)cc1)NCc1ccco1`, 0.096% (inactive).

In the case of `CCOC(=O)C1=NN(C(=O)c2ccccc2)C(O)(c2ccc(C)cc2)C1` (stereo unspecified), the growth rescue activity was 10.9% (inactive). On to `COC(=O)C1CCN(C(=O)COC(=O)c2ccc(OC)c(S(=O)(=O)N3CCCc4ccccc43)c2)CC1`, for which the growth rescue activity was -1.07% (inactive). `O=C(NCCN1Cc2ccccc2C1=O)c1cccs1`: the growth rescue activity was -6.05% (inactive). Under `CC(=O)c1cccc(N(CC(=O)Nc2ccc(F)cc2F)S(C)(=O)=O)c1` stands 2.96% (inactive); under `CNc1nc(Nc2ccc(C)c(Cl)c2)nc(N)c1[N+](=O)[O-]`, -8.67% (inactive).

In the case of `C/C(Cn1cnc([N+](=O)[O-])n1)=N\NC(=O)c1ccccc1F`, the growth rescue activity was -2.85% (inactive). `Cc1nc(SCCOc2ccc(F)cc2)c2ccccc2n1`: the growth rescue activity was -1.07% (inactive).

On to `CCCSc1nnc(Sc2nnnn2-c2ccccc2)s1`, for which the growth rescue activity is 4.13% (inactive).

In the case of `COc1ccc(/C=C2/SC(=O)N(CCNC(=O)C3COc4ccccc4O3)C2=O)cc1` (stereo unspecified), the growth rescue activity was 5.56% (inactive).

On to `CC1(C)CC(=O)C2=C(C1)Nc1cc3c(cc1C2c1ccc2c(c1)OCO2)OCO3` (stereo unspecified), for which the growth rescue activity was 11.9% (inactive).

On to `CC(C)(CNC(=O)/C=C/c1ccc(F)cc1)CNC(=O)/C=C/c1ccc(F)cc1`, for which the growth rescue activity is 0.36% (inactive).

Regarding `COc1ccc2c(c1OC)C(=O)OC2Nc1nc(-c2ccccc2)cs1` (stereo unspecified), the growth rescue activity was 3.17% (inactive).

For `Nc1nnc(SCc2c(F)cccc2Cl)s1`, the growth rescue activity is 4.49% (inactive). As to `O=C(NC1CCSc2ccccc21)c1ccccc1Cl` (stereo unspecified), the growth rescue activity was -4.11% (inactive). As for `CC(C)CC(=O)Nc1ccc(N2CCOCC2)cc1`, the figure is 3.83% (inactive); as for `Cc1cc(C)nc(S/C=C/C(=O)c2ccccc2F)n1`, 1.06% (inactive); as for `CCOC(=O)CC(=O)CSCC(=O)Nc1ccc(C)cc1`, -1.13% (inactive). For `CCOC(=O)Nc1ccc(C(=O)Oc2ccccc2)c(O)c1`, the growth rescue activity is -4.86% (inactive). As for `Cc1cc(C(=O)N2CCN(c3ccccn3)CC2)c(C)o1`, the figure is -0.518% (inactive). As to `CCCCC(=O)OCC(=O)c1[nH]c(C)c(C(=O)OCC)c1C`, the growth rescue activity was 2.65% (inactive). Turning to `COc1ccc(-c2nc3scc(-c4ccccc4)n3n2)cc1`, the growth rescue activity is -0.958% (inactive). Under `O=c1[nH][nH]c(-c2ccccc2O)c1C(C[N+](=O)[O-])c1ccccc1` (stereo unspecified) stands 0.55% (inactive); under `Cc1cc(-c2nnc(CCC(=O)N(C)Cc3cccc4ccccc34)o2)no1`, 8.5% (inactive). Take `O=C(O)CSc1nc2ccccc2nc1Cc1ccccc1F`: the growth rescue activity was 5.3% (inactive).

Consider `Cc1cccc(-c2cc(C(=O)Nc3ccncc3)c3ccccc3n2)c1`, for which the growth rescue activity is 1.56% (inactive). In the case of `O=C(/C=C/Sc1ccccc1)c1ccccc1`, the growth rescue activity was 3.99% (inactive). Turning to `COc1ccc(S(=O)(=O)n2nc(OC(=O)c3ccccc3Br)cc2N)cc1`, the growth rescue activity was -9.27% (inactive). Regarding `Cc1[nH]n(-c2ccccc2)c(=O)c1C=NCCc1ccccc1`, the growth rescue activity is 5.9% (inactive). As for `COc1ccc(C(=O)n2nc(C)cc2Nc2ccccc2)cc1`, the growth rescue activity was 2.84% (inactive).

Turning to `O=C(Cc1cccs1)NCc1ccccc1Br`, the growth rescue activity is -5.14% (inactive).

As for `O=C(OCc1csc(-c2ccccc2)n1)c1cccs1`, the growth rescue activity is 0.967% (inactive). `O=C(O)CC1=C(Nc2ccccc2)C(=O)N(c2ccccc2)C1c1ccc(Cl)cc1` (stereo unspecified): the growth rescue activity was 7.05% (inactive).

Turning to `Cc1ccc(O)c(CNc2nccs2)c1`, the growth rescue activity was 12% (inactive).

As to `O=C1NC(=O)[C@]2(Cc3ccccc3N3CCN(c4ccccc4)CC32)C(=O)N1Cc1ccccc1` (stereo partly specified), the growth rescue activity was 3.15% (inactive). As for `CCN(CC)CCCNC(=O)CSc1c2c(nc3cc(Cl)ccc13)CCCC2`, the figure is 3.73% (inactive); as for `CCOC(=S)SCC(=O)Nc1nc(C)c(C)s1`, 0.308% (inactive). Turning to `Cc1ccc(O)c(NC(=O)c2onc(C)c2Cl)c1`, the growth rescue activity is 6.44% (inactive). In the case of `Cc1cccc(NCc2nc3ccccc3n2C)c1`, the growth rescue activity is -1.89% (inactive).

For the molecule `CN(Cc1ccccc1)C(=O)c1cc(-c2ccc(Br)cc2)on1`, the growth rescue activity is -17.2% (inactive). As to `Cn1c(CO)cnc1SCC(=O)c1ccc(Cl)cc1`, the growth rescue activity was 4.95% (inactive). As to `COC(=O)[C@@H](Cc1c[nH]c2ccccc12)NC(=O)c1ccc2c(c1)OCO2`, the growth rescue activity was 0.758% (inactive). With `O=c1[nH]c2ccccc2n1CCC1CCCCC1`, the growth rescue activity was 8.15% (inactive). As for `O=C(CCC1CCCN(C(=O)c2ccc3cc[nH]c3c2)C1)NCc1ccc(F)c(F)c1` (stereo unspecified), the figure is -2.77% (inactive); as for `CC(=O)Cc1cc(O)c2ccccc2c1OC(=O)c1ccccc1`, -0.443% (inactive). Take `CC(C)OC(=O)c1ccc(COc2ccc3ccc(=O)oc3c2)o1`: the growth rescue activity is 2.08% (inactive). As for `C[C@H](NC(=O)[C@@H]1CSC2c3ccccc3C(=O)N21)C(=O)NCCc1ccccc1` (stereo partly specified), the figure is -5.08% (inactive); as for `Cn1c(=O)c(/C=C/c2ccc(F)cc2)nc2ccccc21`, 8.65% (inactive); as for `O=C(O)C1CCCCC1C(=O)Nc1ccc2c(c1)CCC2` (stereo unspecified), -2.7% (inactive). Take `COc1ccc(CCNc2oc(-c3ccccc3OC)nc2C#N)cc1`: the growth rescue activity was 1.38% (inactive). Under `CCSc1nnc(NC(=O)c2cccnc2Cl)s1` stands -4.76% (inactive).

On to `O=C1S/C(=C\c2ccc(N3CCOCC3)o2)C(=O)N1Cc1c(F)cccc1Cl`, for which the growth rescue activity was -0.523% (inactive). Take `CC(=O)Nc1nnc(SCC(=O)c2ccc(F)cc2)s1`: the growth rescue activity was -0.765% (inactive). On to `COc1ccc2cc(/C=C/C(=O)N3CCN(CC(=O)N4CCCCCC4)CC3)ccc2c1`, for which the growth rescue activity is -2.63% (inactive). For `O=C(NCc1cccc(F)c1)c1noc2c1CCCC2`, the growth rescue activity is 10.6% (inactive). With `O=c1c2ccccc2[nH]c(=S)n1CCC1=CCCCC1`, the growth rescue activity was 21.3% (inactive). In the case of `CC(C)(C)c1ccc(COc2ccsc2C(=O)O)cc1`, the growth rescue activity was -21.6% (inactive). On to `COc1ccc(NC(=O)COC(=O)/C=C/C(=O)OCC(=O)Nc2ccc(OC)c(Cl)c2)cc1Cl`, for which the growth rescue activity was 3.29% (inactive). As for `Cc1ccc(C(=O)CNc2ccc(Cl)cc2)cc1`, the figure is 5.52% (inactive). As to `CC1(C)CC(=O)C2=C(C1)OC(N)=C(C#N)C2C#Cc1ccccc1` (stereo unspecified), the growth rescue activity is 8.43% (inactive).

`Cc1csc2nc(CCNS(=O)(=O)c3cccs3)cn12`: the growth rescue activity is 3.48% (inactive).

For `O=C1NC(=S)S/C1=C/c1ccc(OC(=O)c2ccco2)cc1`, the growth rescue activity is 9.87% (inactive). Turning to `Cc1ccc2cccnc2c1NC(=S)NC(=O)c1ccccc1`, the growth rescue activity is -4.6% (inactive). As for `Cn1cc([N+](=O)[O-])c(C(=O)Nc2ccc(-c3nc4ccccc4[nH]3)cc2)n1`, the growth rescue activity was -1.83% (inactive). As for `COc1ccccc1C(=O)CSc1nnc(-c2ccco2)o1`, the figure is -9.45% (inactive).

Take `CCC1(C)N=C(N)Nc2nc3cc(C)c(C)cc3n21` (stereo unspecified): the growth rescue activity is -2.62% (inactive).

As for `Cc1ccc(CN(C)C(=O)C2CCC(=O)N(CCc3ccccc3)C2)o1` (stereo unspecified), the growth rescue activity is 1.41% (inactive). Under `CCOc1cccc(/C=C/c2ccc3cccc(O)c3n2)c1OC` stands -2.49% (inactive). In the case of `O=C(CSCc1ccc(Br)cc1)N1CCCC1`, the growth rescue activity is 0.808% (inactive). Consider `O=c1[nH]n(CC2COC3(CCCCC3)O2)c(=O)c2ccccc12` (stereo unspecified), for which the growth rescue activity was -3.22% (inactive). On to `O=C(Nc1ccccc1C(=O)OCC(=O)c1c[nH]c2ccccc12)c1ccco1`, for which the growth rescue activity was 5.29% (inactive). As to `Cc1ccc(CN2CCN(CC(C)C)C(CCO)C2)s1` (stereo unspecified), the growth rescue activity is -1.18% (inactive).

With `O=C1C2CC=CCC2C(=O)N1c1ccc(NCCc2ccccc2)c([N+](=O)[O-])c1` (stereo unspecified), the growth rescue activity is 11.8% (inactive). Under `O=C1C2CC=CCC2C(=O)N1Cc1nnc(-c2ccc(Cl)cc2)o1` (stereo unspecified) stands -2.43% (inactive).
